Values quoted from earlier work in patent publication US11975103B2, “Compositions of midodrine and methods of using the same” (XENAMED CORP., priority 2016, dated 2024).

Assays:
[1] = tested on: patients with neurogenic orthostatic hypotension
[2] = after oral administration of an immediate release tablet

## COc1ccc(OC)c(C(O)CNC(=O)CN)c1.Cl (racemic) [Midodrine hydrochloride, (±)-2-amino-N-[2-(2,5-dimethoxyphenyl)-2-hydroxyethyl]acetamide monohydrochloride]
[1]
  standing systolic blood pressure: significantly increases
other
  solubility in water: soluble in water

## COc1ccc(OC)c(C(O)CNC(=O)CN)c1 (stereo not shown) [midodrine]
[2]
  half-life: approximately 25 minutes
  time to peak plasma levels: about 30 minutes
